How the values were obtained:
[1] = biological target: Ephrin type-B receptor 4 (Homo sapiens) (UniProt P54760)
[2] = biological target: Phosphatidylinositol 3-kinase C2 domain-containing subunit gamma (Homo sapiens) (UniProt O75747)
[3] = biological target: SRSF protein kinase 3 (Homo sapiens) (UniProt Q9UPE1)
[4] = biological target: Dual specificity mitogen-activated protein kinase kinase 1 (Homo sapiens) (UniProt Q02750)
[5] = biological target: Ephrin type-A receptor 8 (Homo sapiens) (UniProt P29322)
[6] = biological target: Sigma intracellular receptor 2 (Homo sapiens, UniProt Q5BJF2); details: Compound concentration 10.0 uM
[7] = biological target: Wee1-like protein kinase 2 (Homo sapiens) (UniProt P0C1S8)
Sequence of Wee1-like protein kinase 2 (Homo sapiens) (P0C1S8 whole entry, looked up): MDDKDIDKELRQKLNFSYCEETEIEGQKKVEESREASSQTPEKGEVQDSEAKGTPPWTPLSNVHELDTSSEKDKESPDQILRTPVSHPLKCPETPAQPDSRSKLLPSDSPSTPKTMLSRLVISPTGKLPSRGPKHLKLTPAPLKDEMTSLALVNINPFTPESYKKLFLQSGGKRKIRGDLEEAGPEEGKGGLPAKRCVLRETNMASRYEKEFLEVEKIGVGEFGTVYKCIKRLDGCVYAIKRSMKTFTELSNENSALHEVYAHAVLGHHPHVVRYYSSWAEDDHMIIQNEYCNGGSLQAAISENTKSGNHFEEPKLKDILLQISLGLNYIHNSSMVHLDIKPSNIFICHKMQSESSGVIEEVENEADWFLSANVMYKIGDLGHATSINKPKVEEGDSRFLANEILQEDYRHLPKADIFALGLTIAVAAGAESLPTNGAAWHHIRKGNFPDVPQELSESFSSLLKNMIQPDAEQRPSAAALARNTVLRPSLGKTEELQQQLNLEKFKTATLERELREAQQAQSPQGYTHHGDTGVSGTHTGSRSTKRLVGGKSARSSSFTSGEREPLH

[8] = biological target: Calcium/calmodulin-dependent protein kinase kinase 1 (Homo sapiens) (UniProt Q8N5S9)
[9] = biological target: Sodium-dependent noradrenaline transporter (Homo sapiens) (UniProt P23975); details: Compound concentration 10.0 uM
[10] = biological target: Serine/threonine-protein kinase 36 (Homo sapiens) (UniProt Q9NRP7)
[11] = biological target: Tyrosine-protein kinase JAK1 (Homo sapiens) (UniProt P23458)
[12] = biological target: Serine/threonine-protein kinase ULK3 (Homo sapiens) (UniProt Q6PHR2)
Sequence of Serine/threonine-protein kinase ULK3 (Homo sapiens) (Q6PHR2 whole entry): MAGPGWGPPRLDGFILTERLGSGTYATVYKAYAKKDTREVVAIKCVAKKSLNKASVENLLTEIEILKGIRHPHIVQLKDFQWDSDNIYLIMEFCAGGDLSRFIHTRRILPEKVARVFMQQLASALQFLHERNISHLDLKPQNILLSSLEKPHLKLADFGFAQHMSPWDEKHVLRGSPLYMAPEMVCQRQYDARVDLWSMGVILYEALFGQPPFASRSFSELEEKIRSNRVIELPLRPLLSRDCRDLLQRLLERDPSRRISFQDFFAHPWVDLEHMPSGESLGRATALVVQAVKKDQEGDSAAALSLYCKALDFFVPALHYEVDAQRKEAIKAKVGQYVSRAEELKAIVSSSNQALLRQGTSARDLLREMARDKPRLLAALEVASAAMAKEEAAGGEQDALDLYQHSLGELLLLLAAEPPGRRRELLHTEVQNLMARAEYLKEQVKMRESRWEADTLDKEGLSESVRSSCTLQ

[13] = biological target: RAC-gamma serine/threonine-protein kinase (Homo sapiens) (UniProt Q9Y243)
[14] = biological target: Mast/stem cell growth factor receptor Kit (Homo sapiens) (UniProt P10721)
[15] = biological target: Tyrosine-protein kinase Yes (Homo sapiens) (UniProt P07947)
[16] = biological target: Muscarinic acetylcholine receptor M3 (Homo sapiens) (UniProt P20309); details: Compound concentration 10.0 uM
[17] = biological target: Serine/threonine-protein kinase ICK (Homo sapiens) (UniProt Q9UPZ9)
[18] = biological target: Serine/threonine-protein kinase ULK2 (Homo sapiens) (UniProt Q8IYT8)
[19] = biological target: Ephrin type-A receptor 7 (Homo sapiens) (UniProt Q15375)
[20] = biological target: Myosin light chain kinase, smooth muscle (Homo sapiens) (UniProt Q15746)
[21] = system: Mast/stem cell growth factor receptor Kit (Homo sapiens), P10721 [V559D,V654A]
[22] = biological target: Tyrosine-protein kinase FRK (Homo sapiens) (UniProt P42685)
[23] = biological target: Cyclin-dependent kinase 4 (Homo sapiens) (UniProt P11802)
[24] = biological target: Receptor-type tyrosine-protein kinase FLT3 (Homo sapiens) (UniProt P36888)
[25] = biological target: Dual specificity testis-specific protein kinase 1 (Homo sapiens) (UniProt Q15569)
Sequence of Dual specificity testis-specific protein kinase 1 (Homo sapiens) (Q15569 whole entry, looked up): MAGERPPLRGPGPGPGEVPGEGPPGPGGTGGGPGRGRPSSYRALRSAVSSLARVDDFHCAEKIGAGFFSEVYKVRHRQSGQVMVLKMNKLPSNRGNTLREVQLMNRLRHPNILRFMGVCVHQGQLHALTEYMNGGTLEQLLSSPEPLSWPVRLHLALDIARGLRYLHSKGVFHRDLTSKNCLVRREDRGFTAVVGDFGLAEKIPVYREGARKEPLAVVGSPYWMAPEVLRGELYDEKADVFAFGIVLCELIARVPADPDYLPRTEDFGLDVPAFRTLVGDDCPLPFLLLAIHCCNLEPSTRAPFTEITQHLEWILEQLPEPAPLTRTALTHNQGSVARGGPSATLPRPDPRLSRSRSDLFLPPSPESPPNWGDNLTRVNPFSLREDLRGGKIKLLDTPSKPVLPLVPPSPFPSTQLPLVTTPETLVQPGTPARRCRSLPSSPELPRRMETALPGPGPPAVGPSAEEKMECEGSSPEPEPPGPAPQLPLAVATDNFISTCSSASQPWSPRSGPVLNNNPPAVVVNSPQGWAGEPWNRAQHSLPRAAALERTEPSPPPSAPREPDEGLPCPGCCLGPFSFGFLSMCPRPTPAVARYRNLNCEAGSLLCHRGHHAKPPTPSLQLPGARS

[26] = biological target: Serine/threonine-protein kinase D2 (Homo sapiens) (UniProt Q9BZL6)
[27] = biological target: Sigma non-opioid intracellular receptor 1 (Homo sapiens) (UniProt Q99720); details: Compound concentration 10.0 uM
Sequence of Sigma non-opioid intracellular receptor 1 (Homo sapiens) (Q99720 whole entry): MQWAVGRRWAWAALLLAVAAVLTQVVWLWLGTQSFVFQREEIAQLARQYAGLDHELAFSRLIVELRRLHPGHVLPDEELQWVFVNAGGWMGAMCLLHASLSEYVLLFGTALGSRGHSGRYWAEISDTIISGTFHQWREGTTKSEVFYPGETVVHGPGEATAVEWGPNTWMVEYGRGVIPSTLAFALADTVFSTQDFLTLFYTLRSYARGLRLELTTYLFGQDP

[28] = system: Receptor-type tyrosine-protein kinase FLT3 (Homo sapiens), P36888 [UNDEFINED MUTATION]
[29] = biological target: Activin receptor type-1B (Homo sapiens) (UniProt P36896)
[30] = biological target: Serine/threonine-protein kinase SIK2 (Homo sapiens) (UniProt Q9H0K1)
[31] = biological target: Fibroblast growth factor receptor 2 (Homo sapiens) (UniProt P21802)
[32] = system: Epidermal growth factor receptor (Homo sapiens), P00533 [G719S]
[33] = biological target: Serine/threonine-protein kinase B-raf (Homo sapiens) (UniProt P15056)
[34] = biological target: Muscarinic acetylcholine receptor M5 (Homo sapiens) (UniProt P08912); details: Compound concentration 10.0 uM
[35] = biological target: Serine/threonine-protein kinase RIO2 (Homo sapiens) (UniProt Q9BVS4)
[36] = biological target: Serine/threonine-protein kinase N1 (Homo sapiens) (UniProt Q16512)
[37] = biological target: Serine/threonine-protein kinase Nek3 (Homo sapiens) (UniProt P51956)
[38] = biological target: Mitogen-activated protein kinase kinase kinase kinase 1 (Homo sapiens) (UniProt Q92918)
[39] = biological target: Protein kinase C theta type (Homo sapiens) (UniProt Q04759)
Sequence of Protein kinase C theta type (Homo sapiens) (Q04759 whole entry, looked up): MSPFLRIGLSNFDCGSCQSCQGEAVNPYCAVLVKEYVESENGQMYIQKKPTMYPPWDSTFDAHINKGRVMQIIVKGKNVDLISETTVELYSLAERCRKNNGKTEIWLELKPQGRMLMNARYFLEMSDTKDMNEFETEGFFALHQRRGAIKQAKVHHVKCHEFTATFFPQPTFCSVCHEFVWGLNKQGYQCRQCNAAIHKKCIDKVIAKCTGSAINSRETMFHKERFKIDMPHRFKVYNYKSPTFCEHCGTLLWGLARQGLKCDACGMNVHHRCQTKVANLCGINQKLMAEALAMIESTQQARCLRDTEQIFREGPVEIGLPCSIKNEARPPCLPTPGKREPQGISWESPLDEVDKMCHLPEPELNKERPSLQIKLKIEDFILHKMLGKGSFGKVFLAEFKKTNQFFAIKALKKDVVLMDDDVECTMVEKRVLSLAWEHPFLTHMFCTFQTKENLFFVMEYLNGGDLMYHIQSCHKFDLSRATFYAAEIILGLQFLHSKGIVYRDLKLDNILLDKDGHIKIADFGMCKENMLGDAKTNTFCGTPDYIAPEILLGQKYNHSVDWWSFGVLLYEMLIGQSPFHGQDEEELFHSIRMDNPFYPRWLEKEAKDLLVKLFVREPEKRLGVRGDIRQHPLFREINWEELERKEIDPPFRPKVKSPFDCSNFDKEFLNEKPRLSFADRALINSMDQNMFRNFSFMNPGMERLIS

[40] = biological target: Leucine-rich repeat serine/threonine-protein kinase 2 (Homo sapiens) (UniProt Q5S007)
[41] = system: Receptor-type tyrosine-protein kinase FLT3 (Homo sapiens), P36888 [R834Q]
[42] = biological target: Tyrosine-protein kinase receptor UFO (Homo sapiens) (UniProt P30530)
Sequence of Tyrosine-protein kinase receptor UFO (Homo sapiens) (P30530 whole entry): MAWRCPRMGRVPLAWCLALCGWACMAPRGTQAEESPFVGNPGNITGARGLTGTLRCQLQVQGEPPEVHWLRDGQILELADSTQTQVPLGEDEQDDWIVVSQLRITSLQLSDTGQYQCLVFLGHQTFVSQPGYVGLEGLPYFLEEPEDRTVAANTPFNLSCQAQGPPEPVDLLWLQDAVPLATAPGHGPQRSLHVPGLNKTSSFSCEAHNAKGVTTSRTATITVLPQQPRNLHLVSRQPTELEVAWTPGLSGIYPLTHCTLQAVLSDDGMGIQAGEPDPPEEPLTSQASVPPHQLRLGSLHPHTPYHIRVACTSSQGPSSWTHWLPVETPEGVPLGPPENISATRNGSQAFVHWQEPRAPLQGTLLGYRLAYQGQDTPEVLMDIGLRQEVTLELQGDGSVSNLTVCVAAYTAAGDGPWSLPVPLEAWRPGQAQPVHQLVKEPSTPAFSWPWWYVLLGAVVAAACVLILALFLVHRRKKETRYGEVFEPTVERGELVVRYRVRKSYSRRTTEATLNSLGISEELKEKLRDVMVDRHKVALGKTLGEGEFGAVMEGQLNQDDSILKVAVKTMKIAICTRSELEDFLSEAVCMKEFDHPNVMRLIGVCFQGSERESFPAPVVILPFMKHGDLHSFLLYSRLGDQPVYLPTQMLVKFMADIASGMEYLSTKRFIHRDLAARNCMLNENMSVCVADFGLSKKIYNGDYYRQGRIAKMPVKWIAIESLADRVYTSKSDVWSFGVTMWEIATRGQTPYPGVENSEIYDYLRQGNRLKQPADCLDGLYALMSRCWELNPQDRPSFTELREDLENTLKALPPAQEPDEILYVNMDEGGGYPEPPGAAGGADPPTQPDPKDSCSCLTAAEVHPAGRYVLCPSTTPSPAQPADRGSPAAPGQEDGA

[43] = Compound concentration 100.0 nM
[44] = Compound concentration 1000.0 nM

Sequence of Ephrin type-B receptor 4 (Homo sapiens) (P54760 whole entry, the tested form may be a part): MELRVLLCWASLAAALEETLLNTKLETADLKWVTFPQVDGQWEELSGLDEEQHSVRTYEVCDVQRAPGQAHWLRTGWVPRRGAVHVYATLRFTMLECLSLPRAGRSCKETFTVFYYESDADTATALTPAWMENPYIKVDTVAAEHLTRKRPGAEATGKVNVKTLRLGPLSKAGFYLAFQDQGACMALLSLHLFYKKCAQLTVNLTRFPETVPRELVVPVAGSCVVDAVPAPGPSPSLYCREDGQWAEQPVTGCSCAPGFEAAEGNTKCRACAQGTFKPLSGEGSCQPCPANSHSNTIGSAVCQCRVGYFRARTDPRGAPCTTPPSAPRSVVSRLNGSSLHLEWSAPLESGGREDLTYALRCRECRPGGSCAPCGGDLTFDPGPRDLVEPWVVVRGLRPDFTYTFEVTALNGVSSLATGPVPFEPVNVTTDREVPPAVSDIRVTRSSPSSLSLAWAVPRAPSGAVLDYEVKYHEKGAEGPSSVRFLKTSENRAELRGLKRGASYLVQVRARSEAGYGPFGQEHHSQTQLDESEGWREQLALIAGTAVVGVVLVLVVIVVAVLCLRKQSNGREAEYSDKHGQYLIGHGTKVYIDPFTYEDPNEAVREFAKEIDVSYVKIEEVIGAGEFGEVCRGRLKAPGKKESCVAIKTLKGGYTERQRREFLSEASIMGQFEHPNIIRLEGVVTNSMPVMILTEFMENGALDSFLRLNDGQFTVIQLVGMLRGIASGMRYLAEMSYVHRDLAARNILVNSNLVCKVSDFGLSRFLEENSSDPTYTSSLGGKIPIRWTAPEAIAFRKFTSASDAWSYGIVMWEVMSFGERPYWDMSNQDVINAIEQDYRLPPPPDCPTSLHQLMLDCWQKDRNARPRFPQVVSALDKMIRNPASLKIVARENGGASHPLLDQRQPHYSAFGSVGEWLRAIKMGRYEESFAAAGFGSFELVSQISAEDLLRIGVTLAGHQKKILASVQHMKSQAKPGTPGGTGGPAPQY
Sequence of SRSF protein kinase 3 (Homo sapiens) (Q9UPE1 whole entry): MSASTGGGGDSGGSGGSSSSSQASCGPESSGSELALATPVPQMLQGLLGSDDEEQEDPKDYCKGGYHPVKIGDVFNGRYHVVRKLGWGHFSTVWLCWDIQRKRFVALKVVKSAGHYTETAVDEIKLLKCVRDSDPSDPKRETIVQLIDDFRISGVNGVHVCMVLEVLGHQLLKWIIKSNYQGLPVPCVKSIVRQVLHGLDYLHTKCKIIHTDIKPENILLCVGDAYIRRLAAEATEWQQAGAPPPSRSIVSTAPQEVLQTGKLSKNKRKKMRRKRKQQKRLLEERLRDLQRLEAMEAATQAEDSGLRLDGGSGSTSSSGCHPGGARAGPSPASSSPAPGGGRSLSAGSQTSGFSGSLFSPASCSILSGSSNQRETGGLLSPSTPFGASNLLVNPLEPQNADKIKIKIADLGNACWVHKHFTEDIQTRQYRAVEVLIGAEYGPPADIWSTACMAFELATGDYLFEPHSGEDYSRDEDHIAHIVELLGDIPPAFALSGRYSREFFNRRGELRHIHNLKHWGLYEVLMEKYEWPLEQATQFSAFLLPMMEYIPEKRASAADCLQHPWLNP

Structure (SMILES): CNC(=O)c1ccc(Nc2ncc(C(F)(F)F)c(NCc3nccnc3N(C)S(C)(=O)=O)n2)cc1 [DEFACTINIB]
- residual activity [1, 43]: 94%
- residual activity [2, 43]: 92%
- residual activity [3, 43]: 100%
- residual activity [4, 43]: 100%
- residual activity [5, 43]: 87%
- inhibition [6]: 48.1%
- residual activity [7, 43]: 97%
- residual activity [8, 43]: 75%
- inhibition [9]: 7.81%
- residual activity [10, 43]: 89%
- residual activity [11, 43]: 29%
- residual activity [12, 43]: 75%
- residual activity [13, 43]: 36%
- residual activity [14, 43]: 84%
- residual activity [15, 43]: 100%
- inhibition [16]: 23.8%
- residual activity [17, 43]: 68%
- residual activity [18, 43]: 75%
- residual activity [19, 43]: 68%
- residual activity [20, 43]: 75%
- residual activity [21, 43]: 100%
- residual activity [22, 43]: 100%
- residual activity [23, 43]: 100%
- residual activity [24, 43]: 74%
- residual activity [25, 43]: 96%
- residual activity [26, 43]: 100%
- inhibition [27]: 40.1%
- residual activity [28, 43]: 26%
- residual activity [29, 43]: 69%
- residual activity [30, 43]: 100%
- residual activity [31, 43]: 100%
- residual activity [32, 43]: 92%
- residual activity [33, 43]: 100%
- inhibition [34]: 5.41%
- residual activity [35, 43]: 85%
- residual activity [36, 43]: 100%
- residual activity [37, 43]: 100%
- residual activity [38, 43]: 18%
- residual activity [39, 43]: 89%
- residual activity [40, 43]: 60%
- residual activity [41, 43]: 64%
- residual activity [42, 43]: 51%

Structure (SMILES): CN(c1ccnc(CNc2nc(Nc3ccc4c(c3)CC(=O)N4)ncc2C(F)(F)F)n1)S(C)(=O)=O [PF-00911705]
- residual activity [1, 44]: 96%
- residual activity [2, 44]: 77%
- residual activity [3, 44]: 11%
- residual activity [4, 44]: 85%
- residual activity [5, 44]: 100%
- inhibition [6]: 60.3%
- residual activity [7, 44]: 28%
- residual activity [8, 44]: 90%
- inhibition [9]: 3.15%
- residual activity [10, 44]: 87%
- residual activity [11, 44]: 20%
- residual activity [12, 44]: 25%
- residual activity [13, 44]: 100%
- residual activity [14, 44]: 85%
- residual activity [15, 44]: 77%
- inhibition [16]: -4.64%
- residual activity [17, 44]: 100%
- residual activity [18, 44]: 5.4%
- residual activity [19, 44]: 87%
- residual activity [20, 44]: 71%
- residual activity [21, 44]: 67%
- residual activity [22, 44]: 93%
- residual activity [23, 44]: 93%
- residual activity [24, 44]: 64%
- residual activity [25, 44]: 97%
- residual activity [26, 44]: 92%
- inhibition [27]: 23.1%
- residual activity [28, 44]: 5.5%
- residual activity [29, 44]: 26%
- residual activity [30, 44]: 41%
- residual activity [31, 44]: 59%
- residual activity [32, 44]: 89%
- residual activity [33, 44]: 82%
- inhibition [34]: -6.47%
- residual activity [35, 44]: 81%
- residual activity [36, 44]: 43%
- residual activity [37, 44]: 60%
- residual activity [38, 44]: 33%
- residual activity [39, 44]: 55%
- residual activity [40, 44]: 15%
- residual activity [41, 44]: 30%
- residual activity [42, 44]: 21%
